Converted amounts (≈) assume the structure as drawn.
How the values were obtained:
[1] = tested on: Staphylococcus aureus 209p; assay: MIC, plate method, standard strains; assay type: cell-based; conditions: unit assumed
Method: (§1) The minimum inhibitory concentration (MIC) was determined by the plate method disclosed in "Chemotherapy" (Japan), Vol. 16, (1968), pages 98-99. The culture medium used was a Heart infusion agar (pH 7.4). The number of the cells per plate used in the inoculum was 10^4 (10^6 cells/ml).

[2] = tested on: Escherichia coli NIHJ; assay: MIC, plate method, standard strains; assay type: cell-based; conditions: unit assumed; for MIC Esche--richin coil NIHJ: Table 3, standard strain; for MIC Escherichia coli NIHJ: Table 4, standard strain
Method: as §1

[3] = tested on: Klebsiella pneumoniae; assay: MIC, plate method, standard strains; assay type: cell-based; conditions: unit assumed
Method: as §1

[4] = tested on: Proteus vulgaris 3027; assay: MIC, plate method, standard strains; assay type: cell-based; conditions: unit assumed
Method: as §1

[5] = tested on: Pseudomonas aeruginosa I.F.O.; assay: MIC, plate method, standard strains; assay type: cell-based; conditions: unit assumed; for MIC Pseudomonas aeruginosa I.F.C: Table 3, standard strain; for MIC Pseudomonas aeruginosa I.F.O.: Table 4, standard strain
Method: as §1

[6] = tested on: β-lactamase, Pseudomonas aeruginosa GN 238; assay: Resistant activity against β-lactamase, iodometric assay; assay type: biochemical; conditions: β-lactamase from Pseudomonas aeruginosa GN 238; Potassium Penicillin G = 100
Method: (3) Resistant activity against β-lactamase, Pseudomonas aerugionsa GN 238:
The resistant activity of each compound against β-lactamase was measured in the manner described below.
β-Lactamase was prepared from Pseudomonas aeruginosa GN 238. This microorganism was cultured in 100 ml of a medium containing 2 g of yeast extract, 10 g of polypeptone, 2 g of glucose, 7 g of disodium hydrogen phosphate, 2 g of potassium dihydrogen phosphate, 1.2 g of ammonium sulfate and 0.4 g of magnesium sulfate, per liter, in a 500-ml Erlenmeyer flask for 6 hrs. at 37° C. with shaking. The resulting cells were collected by centrifugation (5,000 r.p.m.×10 min.), washed three times with 0.1 M phosphate buffer (pH 7.0). Subsequently, the cells were subjected to sonication (20 KHz, 20 min.) and then centrifuged at 15,000 r.p.m. for 60 min. By using the supernatant of enzyme fluid, the resistance of each compound against β-lactamase was determined by the iodometric assay method. Each numeral shown in Table 7 is a relative activity value calculated by assuming as 100 the activity of the control Potassium Penicillin G.

[7] = tested on: Staphylococcus aureus; assay: MIC against clinical isolates; assay type: cell-based; conditions: Table 5-1, clinical isolate; unit assumed
[8] = tested on: Pseudomonas aeruginosa; assay: MIC against clinical isolates; assay type: cell-based; conditions: Table 5-3, clinical isolate; unit assumed
[9] = tested on: Shigella sonnei; assay: MIC against clinical isolates; assay type: cell-based; conditions: Table 5-5, clinical isolate; unit assumed
Method: as §1
(§2) MIC was determined in the same manner as in the preceding paragraph (1).

[10] = tested on: Shigella flexneri; assay: MIC against clinical isolates; assay type: cell-based; conditions: Table 5-5, clinical isolate; unit assumed
Method: as §1, §2

[11] = tested on: Escherichia coli; assay: MIC against clinical isolates; assay type: cell-based; conditions: Table 5-2, clinical isolate; unit assumed
[12] = tested on: Klebsiella pneumoniae; assay: MIC against clinical isolates; assay type: cell-based; conditions: Table 5-4, clinical isolate; unit assumed
[13] = Table 3, standard strain, Heart infusion agar pH 7.4

Compound: CC1(C)SC2C(NC(=O)C(NC(=O)N3CCN(CCCl)C(=O)C3=O)c3ccccc3)C(=O)N2C1C(=O)O (single isomer, unassigned) [Compound 44]
- MIC Staphylococcus aureus 209p [1, 13]: < 1.57 µg/mL
- MIC Esche--richin coil NIHJ [2]: < 1.57 µg/mL
- MIC Klebsiella pneumoniae ([3]; Table 3, standard strain): < 1.57 µg/mL
- MIC Proteus vulgaris 3027 ([4]; Table 3, standard strain): < 1.57 µg/mL
- MIC Pseudomonas aeruginosa I.F.C [5]: 6.25 µg/mL (≈ 11.3 µM)

Compound: Cc1csc(SCC2=C(C(=O)O)N3C(=O)C(NC(=O)C(NC(=O)N4CCN(C)C(=O)C4=O)c4ccccc4)C3SC2)n1 (single isomer, unassigned) [compound 71]
- MIC Staphylococcus aureus 209p ([1]; Table 4, standard strain): < 0.79 µg/mL
- MIC Escherichia coli NIHJ [2]: < 0.79 µg/mL
- MIC Klebsiella pneumoniae ([3]; Table 4, standard strain): 1.56 µg/mL (≈ 2.47 µM)
- MIC Proteus vulgaris 3027 ([4]; Table 4, standard strain): < 0.79 µg/mL
- MIC Pseudomonas aeruginosa I.F.O. [5]: 50 µg/mL (≈ 79.3 µM)

Compound: CCN1CCN(C(=O)NC(C(=O)NC2C(=O)N3C(C(=O)O)=C(CSc4cnn[nH]4)CSC23)c2ccccc2)C(=O)C1=O (single isomer, unassigned) [compound 75]
- MIC Staphylococcus aureus 209p ([1]; Table 4, standard strain): 1.57 µg/mL (≈ 2.55 µM)
- MIC Escherichia coli NIHJ [2]: < 0.4 µg/mL
- MIC Klebsiella pneumoniae ([3]; Table 4, standard strain): 1.57 µg/mL (≈ 2.55 µM)
- MIC Proteus vulgaris 3027 ([4]; Table 4, standard strain): 12.5 µg/mL (≈ 20.3 µM)
- MIC Pseudomonas aeruginosa I.F.O. [5]: 50 µg/mL (≈ 81.3 µM)

Compound: CCN1CCN(C(=O)NC(C(=O)NC2C(=O)N3C(C(=O)O)=C(COC)CSC23)c2ccccc2)C(=O)C1=O (single isomer, unassigned) [compound 80]
- MIC Staphylococcus aureus 209p ([1]; Table 4, standard strain): 0.79 µg/mL (≈ 1.45 µM)
- MIC Escherichia coli NIHJ [2]: < 0.1 µg/mL
- MIC Klebsiella pneumoniae ([3]; Table 4, standard strain): 3.13 µg/mL (≈ 5.74 µM)
- MIC Proteus vulgaris 3027 ([4]; Table 4, standard strain): 6.25 µg/mL (≈ 11.5 µM)
- MIC Pseudomonas aeruginosa I.F.O. [5]: 50 µg/mL (≈ 91.6 µM)

Compound: Cn1nnnc1SCC1=C(C(=O)O)N2C(=O)C(NC(=O)C(NC(=O)N3CCN(CCO)C(=O)C3=O)c3ccc(O)cc3)C2SC1 (single isomer, unassigned) [compound 83]
- MIC Staphylococcus aureus 209p ([1]; Table 4, standard strain): 1.57 µg/mL (≈ 2.37 µM)
- MIC Escherichia coli NIHJ [2]: < 1.57 µg/mL
- MIC Klebsiella pneumoniae ([3]; Table 4, standard strain): < 1.57 µg/mL
- MIC Proteus vulgaris 3027 ([4]; Table 4, standard strain): < 1.57 µg/mL
- MIC Pseudomonas aeruginosa I.F.O. [5]: 25 µg/mL (≈ 37.8 µM)

Compound: CCCCCCCCN1CCN(C(=O)N[C@@H](C(=O)N[C@@H]2C(=O)N3[C@@H]2SC(C)(C)[C@@H]3C(=O)O)c2ccccc2)CC1=O [Compound 30]
- Relative activity (%), resistant activity against β-lactamase [6]: 3%

Compound: CCN1CCN(C(=O)N[C@@H](C(=O)N[C@@H]2C(=O)N3[C@@H]2SC(C)(C)[C@@H]3C(=O)O)c2ccccc2)C(=O)C1=O [Compound 36]
- MIC Staphylococcus aureus 209p [1, 13]: < 1.57 µg/mL
- MIC Esche--richin coil NIHJ [2]: < 1.57 µg/mL
- MIC Klebsiella pneumoniae ([3]; Table 3, standard strain): < 1.57 µg/mL
- MIC Proteus vulgaris 3027 ([4]; Table 3, standard strain): < 1.57 µg/mL
- MIC Pseudomonas aeruginosa I.F.C [5]: 6.25 µg/mL (≈ 12.1 µM)
- MIC Staphylococcus aureus F-2 [7]: 3.13 µg/mL (≈ 6.05 µM)
- MIC Staphylococcus aureus F-3 [7]: 1.57 µg/mL (≈ 3.03 µM)
- MIC Staphylococcus aureus F-4 [7]: 6.25 µg/mL (≈ 12.1 µM)
- MIC Staphylococcus aureus MS 8588 [7]: 3.13 µg/mL (≈ 6.05 µM)
- MIC Staphylococcus aureus MS 8596 [7]: 3.13 µg/mL (≈ 6.05 µM)
- MIC Staphylococcus aureus MS 8684 [7]: 3.13 µg/mL (≈ 6.05 µM)
- MIC Staphylococcus aureus MS 8713 [7]: 6.25 µg/mL (≈ 12.1 µM)
- MIC Pseudomonas aeruginosa GN 82 [8]: 6.25 µg/mL (≈ 12.1 µM)
- MIC Pseudomonas aeruginosa GN 163 [8]: 6.25 µg/mL (≈ 12.1 µM)
- MIC Pseudomonas aeruginosa GN 221 [8]: 3.13 µg/mL (≈ 6.05 µM)
- MIC Pseudomonas aeruginosa GN 376 [8]: 6.25 µg/mL (≈ 12.1 µM)
- MIC Pseudomonas aeruginosa GN 383 [8]: 6.25 µg/mL (≈ 12.1 µM)
- MIC Pseudomonas aeruginosa GN 1091 [8]: 6.25 µg/mL (≈ 12.1 µM)
- MIC Shigella sonnei JS 11232 [9]: 50 µg/mL (≈ 96.6 µM)
- MIC Shigella sonnei JS 11755 [9]: 3.13 µg/mL (≈ 6.05 µM)
- MIC Shigella flexneri JS 11215 [10]: 100 µg/mL (≈ 193 µM)
- MIC Shigella flexneri JS 11839 [10]: 3.13 µg/mL (≈ 6.05 µM)
- MIC Escherichia coli GN 3435 [11]: 1.57 µg/mL (≈ 3.03 µM)
- MIC Escherichia coli GN 3452 [11]: 3.13 µg/mL (≈ 6.05 µM)
- MIC Escherichia coli GN 3481 [11]: 3.13 µg/mL (≈ 6.05 µM)
- MIC Escherichia coli K-1 [11]: 3.13 µg/mL (≈ 6.05 µM)
- MIC Escherichia coli K-2 [11]: 3.13 µg/mL (≈ 6.05 µM)
- MIC Escherichia coli K-4 [11]: 1.57 µg/mL (≈ 3.03 µM)
- MIC Klebsiella pneumoniae GN 917 [12]: 6.25 µg/mL (≈ 12.1 µM)
- Relative activity (%), resistant activity against β-lactamase [6]: 14%
